Assay results as given in patent US20220264883A1, “IMIDAZOTHIAZOLE COMPOUNDS AND METHODS FOR TREATING PLANT NEMATODE INFECTIONS” (The Governing Council of the University of Toronto, priority 2019, published 2022).

Experiments:
[1] = HEK cell culture and dose-response experiments; format: cell-based, Human; conditions: human, HEK293 cells, non-target system, CellTiter-Blue, read-out: HEK Cells LC50
Protocol: HEK293 cells were seeded into 96-well plates, at 5000 cells per well, in 100 μL total volumes of DMEM/10% FBS/1% PS media and grown overnight at 37° C. in the presence of 5% CO2. Compounds (0.5 μL volumes from appropriate source plates) were then added to cells, and growth was continued for an additional 48 hours. Following growth, 10 μL of CellTiter-Blue Viability reagent (Promega) was added to each well, and plates were incubated for an additional 4 hours at 37° C. in the presence of 5% CO2. Fluorescence measurements (560 nm excitation/590 nm emission) were then performed using a CLARIOstar Plate Reader (BMG Labtech) to quantify reagent reduction and estimate cell viability.

[2] = Danio rerio (zebrafish) embryo dose-response experiments; format: in vivo; conditions: AB/Tubingen, Danio rerio (zebrafish), in vivo, other: immersion in chemical-treated water; non-target system; embryos, 24 hours exposure; read-out: D. rerio LC50
Protocol: Zebrafish chemical assays were performed similarly to previously described methods^63. In brief, fish were maintained at 28.5° C. on a 14/10 hour light/dark cycle and staged according to hours post fertilization (hpf). For each biological replicate, eggs from LT fish (AB/Tubingen strain) were collected at 4 hpf. At 24 hpf, embryos were arrayed in 24 well plates, 10 per well. In 2 ml tubes, 4 μl of chemical dissolved in DMSO at the appropriate concentration was added to 800 μl of water and then vortexed for 30 s intensively. Water was removed from the embryos in the wells and 800 μl of chemical-treated water was transferred to each of the wells. The DMSO control wells contained DMSO alone. The final DMSO concentration in every well was 0.5% (v/v). […] The embryos were incubated in the chemicals for 24 hours and scored for death and toxicity at 48 hpf. Toxicity was defined as the embryos showing developmental defects such as a curved body, reduced body size, skin whiteness, and heart edema. “Relative viability” was calculated by dividing the number of viable and properly developed embryos in the treatment wells by the average number of viable and properly developed embryos across six DMSO control wells. Three biological replicates were performed for each dose-response experiment, and the relative viability values were averaged across the three replicates.

C. oncophora = test: whole plant or invertebrate; format: in vivo; conditions: Cooperia oncophora, 48 h; eggs of ivermectin-resistant strain, 2 days, egg hatch
Description: Fresh cattle faeces containing eggs of an ivermectin-resistant strain of C. oncophora were kindly supplied by Dr. Doug Colwell and Dawn Gray (Lethbridge Research Station, Agriculture and Agri-Food Canada). Established methods were used to carry out the experimental cattle infections^60, and these methods were approved by the Lethbridge AAFC Animal Care committee and conducted under animal use license ACC1407. Cattle faeces containing C. oncophora eggs were stored anaerobically at room temperature for a maximum of 6 days before use. Eggs were isolated from faeces using a standard saturated salt flotation method^61 immediately before the egg hatch assay. 80 μl of distilled and deionized water was added to each well of a 96-well culture plate, and then 1 μl of chemical at the appropriate concentration in DMSO was added to each well using a multichannel pipette. Approximately 50 eggs were added per well in 20 μl of water for a final volume of 100 μl in each well, the final DMSO concentration was 1% (v/v). The eggs were incubated in the chemicals for 2 days at room temperature, after which hatching was stopped by the addition of 1 μl iodine tincture to each well. […] “Relative viability” values were calculated by dividing the fraction of eggs that hatched at each concentration by the fraction of eggs that hatched in the corresponding DMSO control wells. Two biological replicates were performed for each dose-response experiment, and the relative viability values were averaged across the biological replicates. The average hatch rate for the DMSO control wells was greater than 93% for both biological replicates. LC50 values were calculated in the same manner as for the C. elegans dose-response assays

C. elegans = C. elegans viability at a single concentration (Table 3); format: in vivo; conditions: Caenorhabditis elegans; 100 μM
Protocol: Forty microliters of an HB101 bacterial suspension in liquid NGM (see above) was added to each well of a 96-well flat-bottom culture plate, after which approximately 25 synchronized L1 worms, in 10 μl of M9 buffer (see ref. 59 for the recipe), were added to each well. The synchronized L1 worms were obtained from an embryo preparation performed the previous day (see ref. 59 for the protocol). For the L1 assays, 0.5 μl of chemical solution (or DMSO alone) was immediately added to the wells using a multichannel pipette, the final DMSO concentration is 1% (v/v). The worms were incubated for 3 days at 20° C. and the number of viable animals was counted. […] Although the counts were performed after 3 days of incubation in the chemical, it was noted that the L1s were dead within 24 hours of the addition of the chemicals. For the L2/L3 assays, the worms were incubated in the absence of chemical for 1 day at 20° C. until they reached the L2/L3 stage, at which point chemical was added as described above. The worms were then allowed to incubate for 2 days at 20° C. and the number of viable animals was counted as described for the L1 assay. For the L4 assays, the worms were incubated for 2 days at 20° C. before the addition of chemicals. The L4-stage worms were then incubated in chemical for an additional day before quantifying the number of viable animals. The adult assays were performed the same way as the L4 assays, however HT115 E. coli carrying the empty dsRNA expressing vector L4440 was used in place of HB101 and the worms were cultured at 25° C. as opposed to 20° C. for the entirety of the experiment. The HT115 suspension was made by concentrating a bacterial culture, with an OD600 of ˜ 0.8, five-fold with liquid NGM containing 1 mM IPTG and 100 μg/ml carbenicillin. The HT115 cells were induced with 1 mM IPTG for one hour before concentrating with NGM.
The ability of exemplary compounds of the application to kill C. elegans at 100 μM (except for compound If which was tested at 50 μM) and to affect the mobility of M. chitwoodi at 45 μM was tested as described above for M. incognita infective juveniles. Percent mobility was measured after 2 days of chronic exposure to test compounds (Table 3).

P. pacificus = test: Pristionchus pacificus dose-response experiments; format: in vivo; conditions: larvae, animals reaching L3 stage or older counted
Protocol: Dose-response assays were carried out exactly as those described above for the C. elegans L1 dose-response experiments. However, the compounds of the application-induced phenotypes in P. pacificus, even at the highest concentrations, were a combination of lethality and larval arrest. Therefore, for the Pristionchus dose-response assays, the number of animals that reached the L3 stage or older was quantified, as opposed to the number of viable worms. The arrested animals appeared very sick, and would likely die before reaching reproductive adulthood. Therefore, this arrested phenotype was considered to be practically analogous to lethality. The “relative viability” values were calculated the same way as for the C. elegans dose-response experiments, and were averaged across at least three biological replicates. LC50 values were calculated in the same manner as for the C. elegans dose-response assays.

Row | SMILES | CC50 at 48 h [1] [µM] | LC50 at 24 h [2] [µM] | LC50 (C. oncophora) [µM] | viability at 100 µM (C. elegans) [%] | LC50 (P. pacificus) [µM]
1 | Clc1ccc(-c2cn3ccsc3n2)cc1 [Ia] | > 100 | > 100 | 3.7 | 0 | 6.1
2 | Fc1ccc(-c2cn3ccsc3n2)cc1 [Ib] | > 100 | > 100 | 5.4 | 0 | 14.7
3 | Cc1csc2nc(-c3ccccc3)cn12 [Compound Ie] | > 100 | > 100 | 0.9 | 100 | 45.5
